This note sets out measurements from patent publication US8394431B2, “Composition of extracts from plants and the use thereof in prophylaxis or treatment of metabolism disorder of blood lipid” (priority 2008, dated 2013).

The subject of experiment [1] is Dietary hyperlipidemia rats. The experiment in a line: Blood lipid of dietary hyperlipemia model in rats. It is filed as in vivo, SD rats. The note with it: serum, dose 3 mg/kg, 8 weeks; for HDL-C: high lipid control 0.71 ± 0.30; for LDL-C: high lipid control 1.43 ± 0.30; for TC: high lipid control 3.32 ± 0.49. The protocol: Observe the effects of different doses of FTZEC on the serum TC, TG, LDL-C, and HDL-C of hyperlipemia rats.
In addition to ordinary feed in control group, other groups were given high fat emulsion in 10 ml/kg every morning by gavage beside the ordinary feed, and given corresponding drugs 4 hours after feeding, in which the normal group and the model groups were given equal amount of normal saline, administrated for continuous 8 weeks. These animals were fasted for 1 d, when water was given, in the next morning, the blood was taken from orbital veniplex after the last administration, centrifuged and separated the serum to test the TC, TG, HDL-C, LDL-C respectively.

Experiment [2] relates to L-O2 Lipoprotein Lipase of Liver Cells (LPL). The experiment in a line: LPL activity in L-O2 hepatocytes (colorimetric kit). Format: cell-based, human. The settings on record: 50.0 μg/ml, normal 12.63 ± 0.67. The method, then: The L-O2 human normal liver cells were cultured in routine way, various concentrations of FTZCE were respectively added after cells fusion, continuously cultured the cells for a certain time followed by collecting cells to prepare cell homogenates. Using LPL/HL detection kit (Nanjing Jiancheng Biotechnology Research Institute), the LPL/HL activity was detected by colorimetric method to research the effects of various composition of extracts from plants conbination on LPL activity and compare the enzyme activity of hepatocyte LPL/HL under the action of different concentrations of FTZEC. The gene expressions of hepatocyte LPL/HL were determined by RT-PCR method to observe the affects of FTZEC on the hepatocyte LPL/HL gene expression.

Experiment [3] relates to Dietary hyperlipidemia New-Zealand female rabbits. The experiment in a line: Lipid metabolism of hyperlipidemia New-Zealand female rabbit model. Format: in vivo. The note with it: hyperlipidemia unsexed female rabbits, dose 3 mg/kg, gavage, 12 weeks; for HDL-C: model 0.871 ± 0.30; for TG: model 3.98 ± 0.79; for LDL-C: model 11.63 ± 2.30; for TC: model 33.92 ± 3.49; for Ox-LDL: plasma ELISA, model 1.63 ± 0.30. The text has this: Purebred New Zealand female rabbits were unsexed and fed with 0.5% cholesterol diet, and intravenously injected with bovine serum albumin to establish the model. The experimental animals were 49 New Zealand Angora purebred female rabbits, 1.8-2.2 kg, 3-4 months old which were provided by Guangdong Province Experimental Animal Center. […] In the sham-operated group, the sham operation was confirmed (cutting a small piece of fat tissues around the ovary), without removing the ovaries. The rabbits were given ordinary commercial feed (120-150 g/d) after surgery. […] In the compound Fufang tiaozhi FTZ group (equal to five times of clinical adult daily dose) and other administration groups, the rabbits were administrated with drugs by gavage. The control group and the model group were fed and administrated by gavage with same volume of normal saline. The body weights were examined at 12 weeks of the experiment. 2 ml blood was taken by the ear artery for blood lipid measurement. The rabbits were fasted for 16 h before each blood sampling. […] The total cholesterol, triglyceride, HDLC and LDLC were detected by automatic biochemical analyzer and the steps were carried out according to the kit instructions. The OX-LDL in plasma was measured by ELISA, according to kit instructions.
Background: In an ELISA, binding on a coated surface is turned into a signal by an enzyme label.

The test system of experiment [4] is hypercholesterolemic patients. The experiment in a line: Clinical validation in hyperlipemia patients: blood lipids and efficacy rate. The settings on record: patients n = 30, one tablet twice a day, 2 months. Format: in vivo, human. The method, then:
60 cases with hyperlipemia treated by FTZEC were analyzed, using the tablets obtained in Experiment 1. The experiment was confirmed according to Principles for Clinical Study of New Chinese Medicines in hyperlipemia, Ministry of Health of the People's Republic of China. 60 cases were in-patients or out-patients with hyperlipidemia diagnosed according to diagnostic criteria (1985), of which 40 cases were outpatients and 20 cases were in-patients; the patients were randomly divided into two groups, the treatment group and the control group. […] All patients accepted hyperlipidemia education, diet control, and regular exercise. […] 5.2 Efficiency standard of blood lipid Clinical control: the experimental examination returned to normal. Marked effective: the blood lipid detection achieved any one of the following indexes: […] Effective: the blood lipid detection achieved any one of the following indexes: […] Note: when determine the efficacy of the complicated hyperlipidemia, if the two indicators were not consistent, the lower efficacy was determined as the final result.

The next experiment has as its target T1, HMG-CoA reductase (Rattus norvegicus, UniProt P51639).
T1 construct: The rats liver cells microsomes were prepared into HMG-CoA reductase solution; from tissue; host or cells: rat liver cell microsomes
T1 sequence (P51639 1-887): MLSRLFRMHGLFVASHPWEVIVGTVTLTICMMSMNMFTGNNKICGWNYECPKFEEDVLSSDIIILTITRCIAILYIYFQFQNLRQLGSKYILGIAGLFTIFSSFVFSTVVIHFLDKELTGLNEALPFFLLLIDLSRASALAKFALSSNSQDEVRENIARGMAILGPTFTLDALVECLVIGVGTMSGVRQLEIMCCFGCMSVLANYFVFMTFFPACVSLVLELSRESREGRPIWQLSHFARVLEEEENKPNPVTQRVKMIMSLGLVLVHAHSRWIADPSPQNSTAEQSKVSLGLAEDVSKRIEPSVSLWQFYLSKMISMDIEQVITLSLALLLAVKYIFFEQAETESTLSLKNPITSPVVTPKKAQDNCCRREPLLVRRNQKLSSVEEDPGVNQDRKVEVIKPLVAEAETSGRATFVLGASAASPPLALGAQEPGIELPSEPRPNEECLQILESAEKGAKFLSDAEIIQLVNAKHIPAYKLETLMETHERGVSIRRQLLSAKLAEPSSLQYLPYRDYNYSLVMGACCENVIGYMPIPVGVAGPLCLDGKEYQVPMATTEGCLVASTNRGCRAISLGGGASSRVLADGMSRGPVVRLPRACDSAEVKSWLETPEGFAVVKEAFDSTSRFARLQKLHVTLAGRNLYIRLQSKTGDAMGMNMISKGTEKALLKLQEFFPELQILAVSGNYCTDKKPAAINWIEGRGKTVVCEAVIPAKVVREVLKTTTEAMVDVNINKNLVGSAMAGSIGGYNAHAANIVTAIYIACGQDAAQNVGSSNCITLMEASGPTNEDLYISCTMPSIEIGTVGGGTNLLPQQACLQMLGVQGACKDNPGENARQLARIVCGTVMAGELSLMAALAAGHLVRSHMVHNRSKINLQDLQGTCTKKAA
The experiment in a line: Inhibition of HMG-CoA reductase activity (rat liver cell microsomes). It is filed as biochemical, rats. The protocol: Test the effects of various FTZEC conbination in vitro experiment on inhibiting HMGCoA reductase activity and calculate the IC50 of the composition of extracts from plants on inhibition of HMGCoA reductase and compare with pravastatin.
The rats liver cells microsomes were prepared into HMG-CoA reductase solution. The activities of the HMG-CoA reductase were determined by literature method. The enzyme activity in each group was respectively determined to calculate the IC50 (μg/ml) of FTZEC on HMG-CoA reductase activity.

By IC50 is commonly meant the concentration needed to halve the response being measured. A low value points to inhibition by little substance.

For the compound `CC(C)OC(=O)C(C)(C)Oc1ccc(C(=O)c2ccc(Cl)cc2)cc1` [Fenofibrate], in experiment [1], the HDL-C was 1.22 ± 0.43 mmol/L, the LDL-C is 0.89 ± 0.42 mmol/L and the TC was 2.85 ± 0.45 mmol/L. Moreover, the LPL activity in experiment [2] was 16.95 ± 3.02 g FFA/mL supernatant · h. Further, in experiment [3], the HDL-C came to 1.06 ± 0.26 mmol/L, the TG was determined as 1.88 ± 0.82 mmol/L, the LDL-C worked out at 4.99 ± 2.25 mmol/L and the TC was determined as 19.89 ± 2.62 mmol/L. The compound also yielded an Ox-LDL in experiment [3] of 0.99 ± 0.25 mmol/L.

Turning to `CC[C@H](C)C(=O)O[C@H]1C[C@@H](C)C=C2C=C[C@H](C)[C@H](CC[C@@H]3C[C@@H](O)CC(=O)O3)[C@H]21` [Lovastatin], in experiment [1], the HDL-C stood at 0.96 ± 0.26 mmol/L, the LDL-C turned out to be 0.91 ± 0.25 mmol/L and the TC was 2.29 ± 0.32 mmol/L. The compound also showed a TG in experiment [1] (high lipid control 3.28 ± 0.79) of 2.08 ± 0.82 mmol/L.

Turning to `CC[C@H](C)C(=O)O[C@H]1C[C@H](O)C=C2C=C[C@H](C)[C@H](CC[C@@H](O)C[C@@H](O)CC(=O)O)[C@H]21` [Pravastatin], in experiment [4], the “Effective Cases” value is on record as 15, the “Effective Rate %” value was 50.0%, the “Invalid Cases” value is 4 and the “Invalid Rate %” value is 13.3%. Moreover, in experiment [4], the “Marked effective Cases” value came out at 11, the “Marked effective Rate %” value is reported as 36.7% and the “Total effective rate %” value turned out to be 86.7%. In experiment [3], the HDL-C was 1.36 ± 0.28 mmol/L, the TG is given as 2.08 ± 0.82 mmol/L, the LDL-C was determined as 10.29 ± 2.27 mmol/L and the TC is 12.69 ± 3.62 mmol/L. For the same compound, the Ox-LDL in experiment [3] is 1.29 ± 0.27 mmol/L. In addition, at HMG-CoA reductase, the midpoint of inhibition, the IC50, lay at 4.36 µM.
